This is an account of results in US20240018132A1, “5-HYDROXY-1,4-NAPHTHALENEDIONE FOR USE IN THE TREATMENT OF CANCER” (GODAVARI BIOREFINERIES LIMITED, priority 2020, published 2024).

Molecules are shown by their SMILES.

The test system of assay [1] is MDAMB231. Put plainly: In vitro antiproliferative assay (MTT assay), breast cancer cell line. As to conditions: Homo sapiens. Type of assay: cell-based. On the procedure: (§1) MTT assay is a simple and sensitive assay where, metabolic reducing activity of the cells is measured. The increase of this activity in time is taken as a parameter of cell growth. If treatment with a drug impairs this increase, the action is a consequence of growth inhibition, cell killing or both. […] All cell lines were cultured in a 37° C. incubator with a 5% CO2 environment. Compounds were dissolved in DMSO with a concentration of 0.1M (stock solution). Cells were seeded into 96-well plates at suitable plating efficiency.
(§2) Following plating efficiencies were standardized for MTT assay:
(§3) In the MTT procedure, the cells were plated in 96 well plates as per predetermined plating efficiency (Table1). The plates were then incubated for 24 hrs in 5% CO2 atmosphere at 37° C. Appropriate concentrations of the drugs were then added to the plate and further incubation was carried out for 48 hrs (in 5% CO2 atmosphere at 37° C.). The assay plate was then centrifuged twice at 3000 rpm for 3 mins and supernatant was then discarded. 100 ul of MTT solution (0.5 mg/ml) was then added to each well of the plate and it was further incubated for 4 hrs (in 5% CO2 atmosphere at 37° C.) Following 4 hr incubation, the plate was then centrifuged twice, and supernatant was aspirated off very carefully. 200 ul of DMSO was then added to each well to solubilize. MTT crystals and mixed well by shaking the plate. XY graph of log percent viability was then plotted against log drug concentration.
Background: Tetrazolium dyes change colour on reduction, which living cells bring about.

The subject of assay [2] is PC3. Put plainly: In vitro sphere-forming assay (cancer stem cells), Prostosphere media. The note with it: for viability at 0.025 µM / viability at 0.25 µM / viability at 2.5 µM / viability at 25 µM / viability at 250 µM: Homo sapiens, PC-3, read-out: % Viability of spheres (PC3); for 3D sphere count of PC3: Prostosphere media, 2000 cells/well, n = 6 ± S.D.
Experimental: In Vitro Sphere-forming Assay: Sphere assay measures the ability of cancer stem cells (CSCs) to form spheres in specially designed serum-free medium.
Prostosphere Media Preparation (For 100 mL):1 g methyl cellulose autoclaved with magnetic stirrer, 100 mL plain media (Prostate Epithelial Basal Medium) was added and dissolved, under magnetic stirring. After complete dissolution, Insulin-40 μL, B27-2 mL, EGF-80 μL, Penstrep-1 ml was added.
Procedure—The cells were trypsinised and made into single-cell suspension by passing through cell strainers (100 μl and 40 μl, respectively), The cells were diluted at a concentration of 2000 cells/100 μL and suspended in either Mammosphere (for breast cell lines) or Prostosphere (for prostate cell lines). 100 μL of this suspension was added into each well of 96-well suspension plates and incubated at 37° C., 5% CO2 for 24 hrs. Appropriate concentrations of the drugs (2 μL) were added into respective wells with 100 μL of stem cell culture medium. Plates were incubated at 37° C., 50 CO2 for 72 hrs. After incubation, 2.5 μL of the respective drug concentration and 50 μL of stem cell culture medium were added into each well and the plates were further incubated at 37° C., 50% CO2 for 72 hrs. 3 μL of the respective drug concentration was added with 50 μL of stem cell culture medium again after incubation and plates were reincubated for 72 hrs at 37° C., 50 CO2. Number of primary spheres formed for each concentration were counted. The spheres were converted to 0 viability of spheres compared to untreated (Growth Control with DMSO, GCD).
Assay [3] concerns MDAMB231. Put plainly: In vitro sphere-forming assay (cancer stem cells), Mammosphere media. As to conditions: for viability at 0.025 µM / viability at 0.25 µM / viability at 2.5 µM / viability at 25 µM / viability at 250 µM: Homo sapiens, MDA-MB-231, read-out: % Viability of spheres (MDAMB231); for 3D sphere count of MDAMB231: Mammosphere media, 2000 cells/well, n = 6 ± S.D.
Assay [4] concerns PC3. Put plainly: In vitro antiproliferative assay (MTT assay), prostate cancer cell line. Type of assay: cell-based. The note with it: Homo sapiens. The method, then: as §1, §2, §3
Setting [5] is: MDA-MB-231, 48 h, MTT assay, breast cancer MDAMB231, 48 hrs drug incubation.
Where [6] appears, read: PC-3, 48 h, MTT assay, prostate cancer PC3, 48 hrs drug incubation.
Where [7] appears, read: MDA-MB-231, MTT assay, MDAMB231.

Turning to `O=C1C(c2ccc(F)cc2)=CC(=O)c2c(OCCN3CCOCC3)cccc21` [Formula 7, 5-(2-morpholinoethoxy)-2-(4-fluorophenyl) naphthalene-1,4-dione], the half-maximal inhibitory concentration (IC50) amounted to 451 nM in assay [1] (setting [5]) and 246 nM in assay [4] (setting [6]). The viability at 0.025 µM in assay [2] amounted to 71%; in assay [3] it was 83%. Moreover, the results for the viability at 0.25 µM in assay [2] and in assay [3] were 50% and 60%, respectively. Further, the viability at 2.5 µM was 35% in assay [2] and 43% in assay [3]. Besides, the values for the viability at 25 µM in assay [2] and in assay [3] were 21% and 31%, respectively. For the same compound, the viability at 250 µM was found to be 11% in assay [2] and 15% in assay [3]. The “3D sphere count of PC3” value in assay [2] (drug 0.025 uM) is 57(±3); in assay [2] (drug 0.25 uM), 40(±3); in assay [2] (drug 2.5 uM), 28(±2); in assay [2] (drug 25 uM), 17(±3); in assay [2] (drug 250 uM), 9(±2). The “3D sphere count of MDAMB231” value is recorded as 59(±3) in assay [3] (drug 0.025 uM); 43(±3) in assay [3] (drug 0.25 uM); 31(±3) in assay [3] (drug 2.5 uM); 22(±3) in assay [3] (drug 25 uM); 11(±3) in assay [3] (drug 250 uM).

On to `COc1ccc(NC2=CC(=O)c3c(OCCN4CCOCC4)cccc3C2=O)cc1` [Formula 37, 5-(2-morpholinoethoxy)-2-(4-methoxyphenylamino) naphthalene-1,4-dione], for which the IC50 in assay [1] (setting [5]) came out at 4610 nM; in assay [4] (setting [6]) it was 4440 nM. Besides, the values for the viability at 0.025 µM in assay [2] and in assay [3] were 89% and 82%, respectively. The viability at 0.25 µM in assay [2] turned out to be 69%; in assay [3], 66%. Also, the viability at 2.5 µM in assay [2] and in assay [3] was 56% each time. Besides, the viability at 25 µM in assay [2] amounted to 37%; in assay [3] it was 39%. Further, the viability at 250 µM was found to be 20% in assay [2] and 23% in assay [3]. Moreover, the “3D sphere count of PC3” value in assay [2] (drug 0.025 uM) is 89(±3); in assay [2] (drug 0.25 uM) it was 69(±3); in assay [2] (drug 2.5 uM), 56(±4); in assay [2] (drug 25 uM), 37(±4); in assay [2] (drug 250 uM) it was 20(±4). For the same compound, the “3D sphere count of MDAMB231” value in assay [3] (drug 0.025 uM) was 82(±4); in assay [3] (drug 0.25 uM), 66(±5); in assay [3] (drug 2.5 uM) it was 56(±4); in assay [3] (drug 25 uM), 39(±3); in assay [3] (drug 250 uM) it was 23(±3).

Consider `COc1ccc(OC2=CC(=O)c3c(OCCN4CCCCC4)cccc3C2=O)cc1` [Formula 84], for which the IC50 in assay [1] (setting [7]) amounted to 562 nM; in assay [4] (PC-3, MTT assay, PC3), 492 nM.

As for `COc1ccc(OC2=CC(=O)c3c(OCCCCN4CCOCC4)cccc3C2=O)cc1` [Formula 85], the half-inhibitory concentration (IC50) was found to be 4140 nM in assay [1] (setting [7]) and 2360 nM in assay [4] (PC-3, MTT assay, PC3).

By IC50 is commonly meant the point on the concentration scale where inhibition reaches its midpoint. A word on the viability: it is the share of living cells, or the viability signal relative to a control.
